Assays:
[1] = tested on: MCF-7 human mammary carcinoma cell line; test: Inhibition of colony formation (dose-survival relation, Example 18); assay type: cell-based; conditions: 50 µM (active substance), treated once
[2] = tested on: MDA-MB-231 human mammary carcinoma cell line; test: as above; assay type: cell-based; conditions: 50 µM
[3] = tested on: PC3 human prostate carcinoma cell line; test: as above; assay type: cell-based; conditions: 50 µM
MDA-MB-231 xenograft = test: In vivo antitumour effect on MDA-MB-231 xenograft in immunosuppressed mice; parameters: species or system CBA/Ca mice
Experimental: The immunosuppression of mice was carried out by using the method of Steel et al. [Br. J. Cancer, 37, 224-230 (1978)]. Immunosuppression and xeno-transplantation
CBA-Ca female mice of about 6 weeks old were thymectomized and then, after one week, they were irradiated with 60Co (whole body irradiation; the lethal dose is 9.5 Gray). Within 24 hours 3 to 5 x 10^5 myelocytes were injected into the animals. Beneath the skin of the immunosuppressed mice 2 x 10^7 tumour cells or, in the case of later passages, […] were implanted. […] The treatment with steroid hormone was stopped by at least one week before beginning the investigation.
Recent investigations have begun on 28 animals bearing MCF-7 xenograft and on 28 animals bearing MDA-MB-231 xenograft. On animals bearing MCF-7 tumour the treatment was commenced in the 5th week following xeno-transplantation; the tumour volume was 205 to 225 mm^3. On animals bearing MDA-MB-231 tumour, the treatment was started in the 4th week after xeno-transplantation with a tumour volume of 140 to 150 mm^3. […] The control groups were daily treated with physiological saline s.c. (Each treated group consisting of 7 animals).
A more recent study was started on 28 animals bearing MDA-MB-231 xenograft. The treatment was begun in the 4th or 5th week following xenotransplantation. The tumour volume was 0.165 to 0.194 cm^3. […] (For treatment of the control group, see the preceding Examples). Each group consisted of 7 animals.

MDA-MB-231 = test: Inhibition of colony formation by GnRH analogues (dose-survival, Example 48); assay type: cell-based, human; conditions: 50 µM
Experimental: (§1) The examination gives accurate information about the cell-damaging effect of the substance tested as a function of varying doses. The treatment was carried out once; the colonies formed from the surviving cells were counted after 8 - 12 days. […] A part of the arrested cells again entered the cycle, another part of them might be destroyed (apoptosis). […] In the case of a dose-response investigation, colonies containing less than 15 cells were not counted. 300 cells were put into each Petri dishes of 3.5 cm in diameter. The treatment was once carried out 24 hours after setting, then the colonies formed were counted after 8 - 12 days. The cells were treated once after 24 hours with 1-50 µM of various GnRH analogues of Examples above or with 1 - 50 µM of GnRH-III, respectively. The percentages of inhibition obtained on MCF-7, MDA-MB-231, PC3 and Ishikawa cells, respectively, together with the dose of the active agent used are shown in Table VIII.

Ishikawa = test: as above; assay type: cell-based, human; conditions: within the dose range used (1-50 µM)
Experimental: as §1

MCF-7 = test: as above; assay type: cell-based, human; conditions: 50 µM, treated once
Experimental: as §1

PC3 = test: as above; assay type: cell-based, human; conditions: within the dose range used (1-50 µM)
Experimental: as §1

rat hypophysis = conditions: superfusion, relative to human GnRH; cited from earlier work
[4] = prolonged treatment for three cycles; high doses; cited from earlier work
[5] = MDA-MB-231 xenograft, after 9 week treatment, 100 µg daily s.c.
[6] = Table V, treatment week 2, 1x100 µg daily s.c.
[7] = Table V, treatment week 4, 1x100 µg daily s.c.
[8] = Table V, treatment week 6, 1x100 µg daily s.c.
[9] = week 0, daily s.c., 1 x 100 µg series
[10] = week 1, daily s.c., 1 x 100 µg series
[11] = week 2, daily s.c., 1 x 100 µg series
[12] = week 3, daily s.c., 1 x 100 µg series
[13] = week 4, daily s.c., 1 x 100 µg series
[14] = week 5, daily s.c., 1 x 100 µg series
[15] = week 6, daily s.c., 1 x 100 µg series
[16] = week 7, daily s.c., 1 x 100 µg series

NCCCC[C@H](NC(=O)[C@H](Cc1c[nH]c2ccccc12)NC(=O)[C@H](CC(=O)O)NC(=O)[C@H](Cc1c[nH]cn1)NC(=O)[C@H](CO)NC(=O)[C@H](Cc1c[nH]c2ccccc12)NC(=O)[C@H](Cc1c[nH]cn1)NC(=O)[C@@H]1CCC(=O)N1)C(=O)N1CCC[C@H]1C(=O)NCC(N)=O [GnRH-III, reference compound]
% Inhibition of colony formation [1]: 65%
% Inhibition of colony formation [2]: 69%
% Inhibition of colony formation [3]: 21%
rate of tumour growth (MDA-MB-231 xenograft; MDA-MB-231 xenograft, 100 µg daily s.c.): did not inhibit
Volume (cm^3) of tumours (MDA-MB-231 xenograft; [5]): 2.017 ± 0.585 cm^3
Weight (g) of tumours (MDA-MB-231 xenograft; [5]): 1.84 ± 0.52 g
Inhibition % (MDA-MB-231 xenograft; [6]): 14%
Tumour volume as control (%) (MDA-MB-231 xenograft; [6]): 86%
Inhibition % (MDA-MB-231 xenograft; [7]): 15%
Tumour volume as control (%) (MDA-MB-231 xenograft; [7]): 85%
Inhibition % (MDA-MB-231 xenograft; [8]): 15%
Tumour volume as control (%) (MDA-MB-231 xenograft; [8]): 85%
Tumour volume (cm^3) (MDA-MB-231 xenograft; [9]): 0.19 cm^3
Tumour volume as control (%) (MDA-MB-231 xenograft; [9]): 115%
Tumour volume (cm^3) (MDA-MB-231 xenograft; [10]): 0.26 cm^3
Tumour volume as control (%) (MDA-MB-231 xenograft; [10]): 113%
Tumour volume (cm^3) (MDA-MB-231 xenograft; [11]): 0.36 cm^3
Tumour volume as control (%) (MDA-MB-231 xenograft; [11]): 86%
Tumour volume (cm^3) (MDA-MB-231 xenograft; [12]): 0.47 cm^3
Tumour volume as control (%) (MDA-MB-231 xenograft; [12]): 85%
Tumour volume (cm^3) (MDA-MB-231 xenograft; [13]): 0.55 cm^3
Tumour volume as control (%) (MDA-MB-231 xenograft; [13]): 85%
Tumour volume (cm^3) (MDA-MB-231 xenograft; [14]): 0.81 cm^3
Tumour volume as control (%) (MDA-MB-231 xenograft; [14]): 87%
Tumour volume (cm^3) (MDA-MB-231 xenograft; [15]): 1.04 cm^3
Tumour volume as control (%) (MDA-MB-231 xenograft; [15]): 85%
Tumour volume (cm^3) (MDA-MB-231 xenograft; [16]): 1.28 cm^3
Tumour volume as control (%) (MDA-MB-231 xenograft; [16]): 101%
% Inhibition of the colony formation (MDA-MB-231): 49%
inhibition of colony formation (Ishikawa): did not inhibit
% Inhibition of the colony formation (MCF-7): 45%
inhibition of colony formation (PC3): 21%
LH-releasing effect (rat hypophysis): about thousand times weaker than that of the human GnRH
ovulation of female rats [4]: did not inhibit the ovulation
